Data from patent publication US20160030415A1, “TREATMENT AND PROPHYLAXIS OF KIDNEY DISEASES” (priority 2013, published 2016).

Test system: STZ induced diabetic nephropathy in rats
Assay: Study 4: HCQ and its combination with Losartan, Telmisartan, Azilsartan and Ramipril, with Glimepiride control
Type: in vivo, Wistar rats
Conditions: for HDL / TC / TG / GSH / TBARS / Total protein kidney / Creatinine / Total protein / Urea: after 8th week; for Glucose Day1 / Glucose Day14 / Glucose Day28 / Glucose Day42 / Glucose Day56: blood; for GSH / TBARS / Total protein kidney: kidney homogenate; for Creatinine / Total protein / Urea: serum
Description: The methods described in Terri et al, Diabetes Volume, 1997, 46:1612-1618, and Takashi et al, Jpn J. Pharmacol, 1997, 75, 59-64, were followed for inducing Diabetes in rats by injecting Streptozotocin. The Efficacy of the drugs was tested in two different models, one involving comparison with diabetic control (i.e. Diabetic Rats not treated with any medication) and the other involving comparison with the anti-diabetic control group (i.e. Diabetic rats administered Glimepiride) in two separate studies.
Wistar rats of either sex weighing 150-200 g were divided randomly into 28 groups consisting of 6 animals each. Diabetes was induced in rats by single administration of streptozotocin (55 mg/kg/i.p) dissolved in 0.1 M-citrate buffer, pH 4.5. Group 1 (normal control) consisted of normal rats that neither received streptozotocin nor any test drug; Group 2 served as Diabetic control; Group 3 was diabetic rats treated with Hydroxychloroquine (35 mg/kg); Group 4 was diabetic rats treated with Hydroxychloroquine (45 mg/kg) and Group 5 was diabetic rats treated with Hydroxychloroquine (70 mg/kg); Group 6 was diabetic rats treated with Losartan (5.5 mg/kg); Group 7 was diabetic rats treated with Losartan (11 mg/kg); Group 8 was diabetic rats treated with combination of Losartan (5.5 mg/kg) and Hydroxychloroquine (45 mg/kg); Group 9 was diabetic rats treated with combination of Losartan (11 mg/kg) and Hydroxychloroquine (35 mg/kg); Group 10 was diabetic rats treated with Ramipril (0.6 mg/kg); Group 11 was diabetic rats treated with Ramipril (0.3 mg/kg); Group 12 was diabetic rats treated with combination of Ramipril (0.6 mg/kg) and Hydroxychloroquine (35 mg/kg); Group 13 was diabetic rats treated with combination of Ramipril (0.3 mg/kg) and Hydroxychloroquine (45 mg/kg); Group 14 was diabetic rats treated with combination of Ramipril (0.6 mg/kg) and Hydroxychloroquine (45 mg/kg); Group 15 was diabetic rats treated with combination of Ramipril (0.3 mg/kg) and Hydroxychloroquine (35 mg/kg); Group 16 was diabetic rats treated with Telmisartan (9.5 mg/kg); Group 17 was diabetic rats treated with Telmisartan (4.5 mg/kg); Group 18 was diabetic rats treated with combination of Telmisartan (9.5 mg/kg) and Hydroxychloroquine (35 mg/kg); Group 19 was diabetic rats treated with combination of Telmisartan (4.5 mg/kg) and Hydroxychloroquine (45 mg/kg); Group 20 was diabetic rats treated with combination of Telmisartan (9.5 mg/kg) and Hydroxychloroquine (45 mg/kg); Group 21 was diabetic rats treated with combination of Telmisartan (4.5 mg/kg) and Hydroxychloroquine (35 mg/kg); Group 22 was diabetic rats treated with Azilsartan (4.5 mg/kg); Group 23 was diabetic rats treated with Azilsartan (2.5 mg/kg); Group 24 was diabetic rats treated with combination of Azilsartan (4.5 mg/kg) and Hydroxychloroquine (35 mg/kg); Group 25 was diabetic rats treated with combination of Azilsartan (2.5 mg/kg) and Hydroxychloroquine (45 mg/kg); Group 26 was diabetic rats treated with combination of Azilsartan (4.5 mg/kg) and Hydroxychloroquine (45 mg/kg); Group 27 was diabetic rats treated with combination of Azilsartan (2.5 mg/kg) and Hydroxychloroquine (35 mg/kg); Group 28 served as Anti-Diabetic control wherein diabetic rats were treated with antidiabetic drug Glimepiride (GLM) (1 mg/kg).
The study drugs were dissolved/suspended in vehicle and administered orally once a day for eight weeks. The diabetes mellitus induced nephropathy was assessed by estimating the level of serum urea, serum creatinine and total serum protein content after completion of eighth week of study. TBARS, GSH and Total Protein were measured as markers of renal oxidative stress in Kidney Homogenate after completion of eighth week of study. Blood glucose levels were also assessed at weekly interval.

[1] = dose mg/kg: HCQ 35, LT 5.5, RM 0.3, TL 4.5, AZ 2.5, alone or combined with HCQ 35
[2] = dose mg/kg: HCQ 45, LT 11, RM 0.6, TL 9.5, AZ 4.5, alone or combined with HCQ 45

Compound | HDL [1] | TC [1] | TG [1] | HDL [2] | TC [2] | TG [2] | Glucose Day1 [1] | Glucose Day1 [2] | Glucose Day14 [1] | Glucose Day14 [2] | Glucose Day28 [1] | Glucose Day28 [2] | Glucose Day42 [1] | Glucose Day42 [2] | Glucose Day56 [1] | Glucose Day56 [2] | GSH [1] | TBARS [1] | Total protein kidney [1] | GSH [2] | other results
CCOC(=O)[C@H](CCc1ccccc1)N[C@@H](C)C(=O)N1[C@H](C(=O)O)C[C@@H]2CCC[C@@H]21 [Ramipril] | 27.17 ± 1.47 mg/dL | 138.33 ± 2.94 mg/dL | 100.17 ± 5 mg/dL | 27.33 ± 1.63 mg/dL | 142.17 ± 3.31 mg/dL | 98.5 ± 4.93 mg/dL | 281.5 ± 18.2 mg/dL | 260 ± 17.19 mg/dL | 216.17 ± 21.48 mg/dL | 203 ± 14.07 mg/dL | 174.17 ± 9.06 mg/dL | 174.33 ± 8.91 mg/dL | 158.5 ± 9.07 mg/dL | 157.67 ± 9.18 mg/dL | 145.33 ± 6.38 mg/dL | 141.67 ± 5.47 mg/dL | 1.16 ± 0.62 nM/mg | 0.67 ± 0.1 nM/mg | 835.33 ± 22.27 µg/mL | 1.16 ± 0.59 nM/mg | TBARS [2]: 0.62 ± 0.15 nM/mg; Total protein kidney [2]: 810 ± 17.12 µg/mL; Creatinine [1]: 3.37 ± 0.32 mg/dL; Total protein [1]: 4.76 ± 0.28 g/dL; Urea [1]: 41.33 ± 1.97 mg/dL; Creatinine [2]: 3.68 ± 0.24 mg/dL; Total protein [2]: 4.77 ± 0.21 g/dL; Urea [2]: 41 ± 1.79 mg/dL
CCCCc1nc(Cl)c(CO)n1Cc1ccc(-c2ccccc2-c2nn[nH]n2)cc1 [Losartan] | 27.5 ± 1.64 mg/dL | 143.5 ± 3.39 mg/dL | 100 ± 5.4 mg/dL | 28.5 ± 2.88 mg/dL | 139.83 ± 3.19 mg/dL | 98.83 ± 3.66 mg/dL | 262.5 ± 25.35 mg/dL | 268.67 ± 15.63 mg/dL | 211.17 ± 21.48 mg/dL | 215.67 ± 18.13 mg/dL | 179.33 ± 7.84 mg/dL | 178 ± 7.92 mg/dL | 161.17 ± 4.71 mg/dL | 152.17 ± 7.28 mg/dL | 146.33 ± 6.65 mg/dL | 139 ± 10.92 mg/dL | 0.56 ± 0.23 nM/mg | 0.74 ± 0.1 nM/mg | 893.33 ± 29.92 µg/mL | 0.66 ± 0.23 nM/mg | TBARS [2]: 0.63 ± 0.17 nM/mg; Total protein kidney [2]: 829.67 ± 25.45 µg/mL; Creatinine [1]: 3.36 ± 0.32 mg/dL; Total protein [1]: 4.91 ± 0.2 g/dL; Urea [1]: 39.83 ± 1.72 mg/dL; Creatinine [2]: 3.26 ± 0.38 mg/dL; Total protein [2]: 5.32 ± 0.2 g/dL; Urea [2]: 41 ± 2.53 mg/dL
